Values quoted from earlier work, collected in US12208104B2, “Pharmaceutical compositions suitable for articular delivery and use thereof in treatment of joint pain” (TAIWAN LIPOSOME CO., LTD., priority 2018, dated 2025).

Test system: cartilage
Conditions: repeated intra-articular injections

## C[C@]12C=CC(=O)C=C1CC[C@H]1[C@@H]3C[C@@H](O)[C@](O)(C(=O)CO)[C@@]3(C)C[C@H](O)[C@@]12F [triamcinolone]
  cartilage damage: cartilage damage has been reported

## C[C@@H]1C[C@H]2[C@@H]3CCC4=CC(=O)C=C[C@]4(C)[C@@]3(F)[C@@H](O)C[C@]2(C)[C@@]1(O)C(=O)CO [dexamethasone]
  cartilage damage: cartilage damage has been reported
